Measured values reported in patent US8487121B2, “Chromane derivatives as TRPV3 modulators” (Glenmark Pharmaceuticals S.A., priority 2007, dated 2013).

Biological target: T1, Human TRPV3 (Homo sapiens, UniProt Q8NET8)
T1 construct: expressed in transfected cells; host or cells: CHO cells (G-418 selected)
T1 sequence (Q8NET8 1-790): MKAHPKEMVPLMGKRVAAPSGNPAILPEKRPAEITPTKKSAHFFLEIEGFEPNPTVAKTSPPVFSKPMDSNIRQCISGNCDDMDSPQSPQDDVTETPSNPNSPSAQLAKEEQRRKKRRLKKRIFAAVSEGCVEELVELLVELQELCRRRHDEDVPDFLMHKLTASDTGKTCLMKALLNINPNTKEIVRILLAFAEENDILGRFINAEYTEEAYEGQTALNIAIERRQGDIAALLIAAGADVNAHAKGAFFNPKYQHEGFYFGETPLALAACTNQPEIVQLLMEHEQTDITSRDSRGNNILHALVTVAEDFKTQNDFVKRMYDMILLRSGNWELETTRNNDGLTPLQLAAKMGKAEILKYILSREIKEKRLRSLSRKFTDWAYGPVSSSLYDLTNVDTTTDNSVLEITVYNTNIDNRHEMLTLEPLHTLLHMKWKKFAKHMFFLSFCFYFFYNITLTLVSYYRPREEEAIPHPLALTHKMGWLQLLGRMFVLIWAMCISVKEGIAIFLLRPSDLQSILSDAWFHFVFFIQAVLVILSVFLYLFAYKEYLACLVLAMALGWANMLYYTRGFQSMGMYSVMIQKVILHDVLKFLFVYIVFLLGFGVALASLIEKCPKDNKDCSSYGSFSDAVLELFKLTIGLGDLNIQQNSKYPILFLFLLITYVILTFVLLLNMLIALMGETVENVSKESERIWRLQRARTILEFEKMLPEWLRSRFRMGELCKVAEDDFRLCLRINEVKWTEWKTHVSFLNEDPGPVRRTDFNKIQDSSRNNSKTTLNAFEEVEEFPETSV
Experiment: 45Calcium uptake assay: inhibition of 2-APB induced cellular uptake of radioactive calcium
Format: cell-based
Details: human TRPV3 expressing CHO cells, 2-APB 500 μM; for inhibition at 1 µM: 1.0 μM compound, read-out: Percentage inhibition at 1.0 μM; for inhibition at 10 µM: 10.0 μM compound, read-out: Percentage inhibition at 10.0 μM
Source text: The illustrative examples of the present invention are screened for TRPV3 activity according to a modified procedure described in Toth, A. et al. Life Sciences (2003), 73, 487-498. The screening of the compounds can be carried out by other methods and procedures known to a person skilled in the art. Such screening methods may be found in Hu, H-Z., et al. J. Biol. Chem. (2004), 279, 35741-35748; Smith, G. D et al. Nature (2002), 418, 186-190 and Peier, A. M., et al. Science (2002), 296, 2046-2049.
Screening for TRPV3 Antagonist Using the ^45Calcium Uptake Assay:
The inhibition of TRPV3 receptor activation was followed as inhibition of 2-APB induced cellular uptake of radioactive calcium. Test compounds were dissolved in DMSO to prepare 20 mM stock and then diluted using plain medium with 0.1% BSA and 1.8 mM CaCl2 to get desired concentration. Final concentration of DMSO in the reaction was 0.5% (v/v). Human TRPV3 expressing CHO cells were grown in F-12 DMEM medium with 10% FBS, 1% penicillin-streptomycin solution, 400 μg/ml of G-418. Cells were seeded 24 h prior to the assay in 96 well plates so as to get ˜50,000 cells per well on the day of experiment. Cells were treated with test compounds for 10 minutes followed by addition of 2-APB at a final concentration of 500 μM and 5 μCi/ml ^45Ca^+2 for 4 minutes. Cells were washed and lysed using buffer containing 1% Triton X-100, 0.1% deoxycholate and 0.1% SDS. Radioactivity in the lysate was measured in Packardt Top count after addition of liquid scintillant.
Concentration response curves were plotted as a % of maximal response obtained in the absence of test antagonist. IC50 value was calculated from concentration response curve by nonlinear regression analysis using GraphPad PRISM software.
Percentage inhibition at concentrations of 1.0 μM and 10.0 μM are given in the table along with IC50 (nM) values for selected examples.

Compound	inhibition at 1 µM	inhibition at 10 µM	IC50
Cc1cccc(CCC(=O)N[C@H]2CC3(CCC3)Oc3ccc(Cl)cc32)c1OC1CCCC1 [Example 54, (4S)-6-Chloro-N-(3,4-dihydrospiro[chromene-2,1′-cyclobutan]-4-yl)-3-(2-cyclopentyloxy-3-methyl)phenylpropanamide]	36.2%	63.6%	–
COc1cccc(CCCC(=O)NC2CC3(CCC3)Oc3cc(OCc4ccccc4)ccc32)c1OC1CCCC1 (stereo not shown) [Example 99, N-(7-Benzyloxy-3,4-dihydrospiro[chromene-2,1′-cyclobutan]-4-yl)-4-(2-cyclopentyloxy-3-methoxyphenyl)butanamide]	19.9%	19.6%	–
COc1cccc(CCCC(=O)NC2CC(C)(C)Oc3ccc(Cl)cc32)c1OC1CCCC1 (stereo not shown) [Example 103, N-(6-Chloro-2,2-dimethyl-3,4-dihydro-2H-chromen-4-yl)-4-(2-cyclopentyloxy-3-methoxy)phenylbutanamide]	69.4%	96.4%	500 to 1000 nM
COc1ccc(C(=O)CCC(=O)NC2CC3(CCC3)Oc3ccc(Cl)cc32)c2ccccc12 (stereo not shown) [Example 101, N-(6-Chloro-3,4-dihydrospiro[chromene-2,1′-cyclobutan]-4-yl)-4-oxo-4-(4-methoxy-naphthyl)butanamide]	26.5%	63.2%	–
COc1ccc2cc([C@H](C)C(=O)N[C@@H]3CC4(CCC4)Oc4ccc(Cl)cc43)ccc2c1 [Example 19, (2S)—N-[(4R)-6-Chloro-3,4-dihydrospiro[chromene-2,1′-cyclobutan]-4-yl]-2-(6-methoxy-2-naphthyl)propanamide]	23.1%	61.7%	–
COc1cccc(CC(=O)NC2CC3(CCC3)Oc3ccc(Cl)cc32)c1OC1CCCC1 (stereo not shown) [Example 4, N-(6-Chloro-3,4-dihydrospiro[chromene-2,1′-cyclobutan]-4-yl)-2-(2-(cyclopentyloxy)-3-methoxyphenyl)acetamide]	37.2%	66.2%	–
O=C(CCc1ccc(OC(F)F)c2ccccc12)N[C@@H]1CC2(CCC2)Oc2ccc(Cl)cc21 [Example 71, (4R)-6-Chloro-N-(3,4-dihydrospiro[chromene-2,1′-cyclobutan]-4-yl)-3-(4-difluoro-methoxy-1-naphthyl)propanamide]	53.5%	95.5%	–
O=C(Cc1noc2ccccc12)N[C@@H]1CC2(CCC2)Oc2ccc(Cl)cc21 [Example 26]	29.4%	46.1%	–
COc1ccccc1CC(=O)NC1CC2(CCC2)Oc2ccc(Cl)cc21 (stereo not shown) [Example 2, N-(6-Chloro-3,4-dihydrospiro[chromene-2,1′-cyclobutan]-4-yl)-2-(2-methoxyphenyl)-acetamide]	12%	79%	> 2000 nM
O=C(CCc1cccc2c1OCO2)NC1CC2(CCC2)Oc2c(Cl)cccc21 (stereo not shown) [Example 83, 3-(1,3-Benzodioxol-4-yl)-N-(8-chloro-3,4-dihydrospiro[chromene-2,1′-cyclobutan]-4-yl)propanamide]	11%	83.2%	–
O=C(CCc1ccc2ccccc2c1)NC1CC2(CCC2)Oc2ccc(Cl)cc21 (stereo not shown) [Example 73, N-(6-Chloro-3,4-dihydrospiro[chromene-2,1′-cyclobutan]-4-yl)-3-(2-naphthyl)propanamide]	61.3%	83.3%	500 to 1000 nM
CS(=O)(=O)Nc1cccc(CCC(=O)NC2CC3(CCC3)Oc3c(Cl)cc(Cl)cc32)c1OCC1CC1 (stereo not shown) [Example 64, N-(6,8-Dichloro-3,4-dihydrospiro[chromene-2,1′-cyclobutan]-4-yl)-3-{2-(cyclopropylmethoxy)-3-[(methylsulfonyl)amino]phenyl}propanamide]	37.6%	95.4%	–
COc1cccc(CCCC(=O)N[C@H]2CC3(CCC3)Oc3ccc(Cl)cc32)c1OC1CCCC1 [Example 94]	79.7%	97.2%	< 500 nM
COc1ccc2cc(CCC(=O)N[C@@H]3CC4(CCC4)Oc4ccc(Cl)cc43)ccc2c1 [Example 74]	64.1%	90.4%	1000 to 2000 nM
COc1cccc(CCC(=O)NC2CC3(CCC3)Oc3cccc(O)c32)c1OC1CCCC1 (stereo not shown) [Example 51, N-(5-Hydroxy-3,4-dihydrospiro[chromene-2,1′-cyclobutan]-4-yl)-3-(2-cyclopentyloxy-3-methoxy)phenylpropanamide]	37.1%	86.7%	1000 to 2000 nM
COc1ccc(CCC(=O)NC2CC3(CCC3)Oc3ccc(Cl)cc32)cc1Cl (stereo not shown) [Example 40, N-(6-Chloro-3,4-dihydrospiro[chromene-2,1′-cyclobutan]-4-yl)-3-(3-chloro-4-methoxy)phenylpropanamide]	6.8%	93.5%	–
CCOc1c(CCC(=O)NC2CC3(CCC3)Oc3c(Cl)cccc32)cccc1OC (stereo not shown) [Example 46, N-(8-Chloro-3,4-dihydrospiro[chromene-2,1′-cyclobutan]-4-yl)-3-(2-ethoxy-3-methoxy)phenylpropanamide]	53.2%	99.7%	500 to 1000 nM
COc1cccc(CCCC(=O)N[C@@H]2CC3(CCC3)Oc3c(Cl)cccc32)c1OC1CCCC1 [Example 95, (4R)—N-(8-Chloro-3,4-dihydrospiro[chromene-2,1′-cyclobutan]-4-yl)-4-(2-cyclopentyloxy-3-methoxyphenyl)butanamide]	71.8%	96.5%	500 to 1000 nM
O=C(Cc1ccc2ccccc2c1)NC1CC2(CCC2)Oc2ccc(Cl)cc21 (stereo not shown) [Example 18, N-(6-Chloro-3,4-dihydrospiro[chromene-2,1′-cyclobutan]-4-yl)-2-(2-naphthyl)acetamide]	36.1%	72.3%	–
Cc1c(CC(=O)NC2CC3(CCC3)Oc3ccc(F)cc32)[nH]c2ccc(F)cc12 (stereo not shown) [Example 24, N-(6-Fluoro-3,4-dihydrospiro[chromene-2,1′-cyclobutan]-4-yl)-2-(5-fluoro-3-methyl-1H-indol-2-yl)acetamide]	26.9%	89.9%	1000 to 2000 nM
COc1cc(CCC(=O)N[C@H]2CC3(CCC3)Oc3ccc(Cl)cc32)cc2cc(C)oc12 [Example 80, N-[(4S)-6-chloro-3,4-dihydrospiro[chromene-2,1′-cyclobutan]-4-yl]-3-(7-methoxy-2-methyl-1-benzofuran-5-yl)propanamide]	73.5%	98.6%	500 to 1000 nM
COc1cccc(CCC(=O)NC2CC3(CCC3)Oc3cccc(OC)c32)c1OC1CCCC1 (stereo not shown) [Example 52, N-(3,4-Dihydrospiro[chromene-2,1′-cyclobutan]-5-methoxy-4-yl)-3-(2-cyclopentyloxy-3-methoxy)phenylpropanamide]	39.6%	92.5%	–
COc1cc(CCC(=O)N[C@@H]2CC3(CCC3)Oc3ccc(Cl)cc32)cc2cc(C)oc12 [Example 79, N-[(4R)-6-Chloro-3,4-dihydrospiro[chromene-2,1′-cyclobutan]-4-yl]-3-(7-methoxy-2-methyl-1-benzofuran-5-yl)propanamide]	51.5%	95.5%	–
COc1ccc2ccccc2c1CCC(=O)N[C@@H]1CC2(CCC2)Oc2ccc(Cl)cc21 [Example 67]	17%	84.7%	–
